From patent US7977375B2, “Antibiotic and method of production thereof” (Helmholtz-Zentrum Für Infektionsforschung GmbH, priority 2004, dated 2011)

Experiments:
[1] = tested on: S. aureus # (non-methicillin-resistant reference strain); assay: MIC / MBC in liquid culture; format: cell-based, Staphylococcus aureus; settings: S. aureus #
[2] = tested on: MRSA 2; assay: MIC / MBC in liquid culture; format: cell-based, Staphylococcus aureus; settings: MRSA 2
[3] = tested on: MRSA 3; assay: MIC / MBC in liquid culture; format: cell-based, Staphylococcus aureus; settings: MRSA 3
[4] = tested on: E. faecalis ATCC 29212; assay: MIC / MBC in liquid culture; format: cell-based, Enterococcus faecalis; settings: E. faecalis ATCC 29212
[5] = tested on: E. faecalis VRAS E305; assay: MIC / MBC in liquid culture; format: cell-based, Enterococcus faecalis; settings: E. faecalis VRAS E305
[6] = tested on: E. faecium VRAR E315; assay: MIC / MBC in liquid culture; format: cell-based, Enterococcus faecium; settings: E. faecium VRAR E315
[7] = tested on: B. cepacia SCV 141; assay: MIC / MBC in liquid culture; format: cell-based, Burkholderia cepacia
Text: (§1) 7-O-malonyl macrolactin A was not effective against some of the gram-negative bacteria tested by the inventors.

[8] = tested on: B. cepacia WT139; assay: MIC / MBC in liquid culture; format: cell-based, Burkholderia cepacia
Text: as §1

[9] = tested on: MRSA 2 (methicillin-resistant S. aureus, clinical isolate); assay: agar diffusion method, inhibition zone; format: cell-based, Staphylococcus aureus; settings: MRSA 2; MH agar, 18 hours at 37° C.; per disk 10 μl crude extract, 50 μg macrolactin, 78 μg erythromycin, 30 μg vancomycin, 10 μg ampicillin
Method: (§2) The agar diffusion method employing Mueller-Hinton (MH) agar (Difco Laboratories) was used to determine effectiveness against bacteria and yeasts. Sterile paper disks (Schleicher & Schüell, Germany) were seeded with 10 μl crude extract or with a solution of purified macrolactin (final compound concentration on the disk 50 μg) and then placed on the surface of MH-agar plates that had been seeded beforehand with a suspension of overnight culture of the test microorganisms at a concentration of 10^5 cells/ml.

[10] = tested on: MRSA 3 (methicillin-resistant S. aureus, clinical isolate); assay: agar diffusion method, inhibition zone; format: cell-based, Staphylococcus aureus; settings: MRSA 3; MH agar, 18 hours at 37° C.; per disk 10 μl crude extract, 50 μg macrolactin, 78 μg erythromycin, 30 μg vancomycin, 10 μg ampicillin
Method: as §2

[11] = tested on: S. aureus # (own collection, methicillin-sensitive control strain); assay: agar diffusion method, inhibition zone; format: cell-based, Staphylococcus aureus; settings: S. aureus # own collection; MH agar, 18 hours at 37° C.; per disk 10 μl crude extract, 50 μg macrolactin, 78 μg erythromycin, 30 μg vancomycin, 10 μg ampicillin
Method: as §2

[12] = tested on: S. aureus DSMZ 1104; assay: agar diffusion method, inhibition zone; format: cell-based, Staphylococcus aureus; settings: S. aureus DSMZ 1104; MH agar, 18 hours at 37° C.; per disk 10 μl crude extract, 50 μg macrolactin, 78 μg erythromycin, 30 μg vancomycin, 10 μg ampicillin
Method: as §2

[13] = tested on: E. faecalis ATCC 29212; assay: agar diffusion method, inhibition zone; format: cell-based, Enterococcus faecalis; settings: E. faecalis ATCC 29212; MH agar, 18 hours at 37° C.; per disk 10 μl crude extract, 50 μg macrolactin, 78 μg erythromycin, 30 μg vancomycin, 10 μg ampicillin
Method: as §2

[14] = tested on: E. faecalis VRAS E305; assay: agar diffusion method, inhibition zone; format: cell-based, Enterococcus faecalis; settings: E. faecalis VRAS E305, MH agar, 18 hours at 37° C., per disk 10 μl crude extract, 50 μg macrolactin, 78 μg erythromycin, 30 μg vancomycin, 10 μg ampicillin
Method: as §2

[15] = tested on: E. faecium VRAR E315; assay: agar diffusion method, inhibition zone; format: cell-based, Enterococcus faecium; settings: E. faecium VRAR E315; MH agar, 18 hours at 37° C.; per disk 10 μl crude extract, 50 μg macrolactin, 78 μg erythromycin, 30 μg vancomycin, 10 μg ampicillin
Method: as §2

[16] = tested on: B. cepacia SCV 141; assay: agar diffusion method, inhibition zone; format: cell-based, Burkholderia cepacia; settings: MH agar, 18 hours at 37° C., per disk 10 μl crude extract, 50 μg macrolactin, 78 μg erythromycin, 10 μg ampicillin
Method: as §2
The B. cepacia strain used, which is a clinical isolate from a cystic fibrosis patient, forms small colonies (SCV 141).

[17] = tested on: L929 mouse fibroblast cells; assay: inhibition of proliferation, CyQUANT cell proliferation test; format: cell-based; settings: 5 days
Method: The cytotoxicity of 7-O-malonyl macrolactin A was compared to that of 7-O-succinyl macrolactin A and macrolactin A in vitro with respect to the inhibition of the proliferation of L929 mouse fibroblast cells or the human epithelial cell line HeLa.
For the cell culture, the HeLa cells were cultivated in low-glucose DMEM medium (Gibco), and the L929 cells in high-glucose DMEM medium. Both were supplemented with 10% by volume foetal calf serum (Gibco) at 37° C. in an atmosphere containing 5% CO2. The cells were extracted from stock cultures by means of trypsinization with EDTA (HeLa) or without EDTA (L929), then counted and diluted to 2×10^5 cells/ml. For the tests, microtitre plates (Nunc.) comprising 96 depressions were plated out in serial dilution without or in the presence of the test compounds or methanol. Determination of morphological alterations of the cells was carried out by means of phase contrast microscopy after 1, 2 and 5 days incubation.
After 5 days cultivation, cell counts were determined by the CyQUANT cell proliferation test (Molecular Probes), which is a highly sensitive microtitre plate test based on fluorescence. The test employs the dye CyQUANT, which, by binding to cellular nucleic acids, enhances fluorescence, which can then be measured by fluorescein excitation. The emission of fluorescence by the dye-nucleic acid complex correlated linearly with the cell count. For test purposes, the residue was carefully removed after 5 days incubation, the cells washed with PBS (phosphate buffered saline solution), the buffer removed and the cells frozen at −80° C. For the test, the cells were thawed at ambient temperature and lysated in a buffered solution containing the dye CyQUANT, in accordance with manufacturer's instructions. Fluorescence was measured by means of a fluormetric microtitre-plate reader (Titertex Fluorskan II) (excitation at 480 nm, emission at 520 nm). The […] were used to calculate the percentage of cellular proliferation in medium both alone and in the presence of serial dilutions of methanol and the macrolactin compounds. […] Proliferation was measured by means of the fluorescence-based test CyQUANT for determining viable cell counts. Table 5 illustrates the relative inhibition of proliferation as compared to a control culture comprising fresh medium without the addition of a macrolactin.

[18] = listed as 7-O-Succinyl-macrolactin A

Gentamycin
MIC (minimal inhibitory concentration) [1]: 0.25 µg/mL | MIC (minimal inhibitory concentration) [2]: 128 µg/mL | MIC (minimal inhibitory concentration) [3]: 128 µg/mL | MIC (minimal inhibitory concentration) [4]: 32 µg/mL | MIC (minimal inhibitory concentration) [5]: 64 µg/mL | MIC (minimal inhibitory concentration) [6]: 64 µg/mL | MIC (minimal inhibitory concentration) [7]: >128 µg/mL | MIC (minimal inhibitory concentration) [8]: >128 µg/mL

CC1CCCC=CC=CC(O)CC(O)CC=CC=CC(OC(=O)CCC(=O)O)CC=CC=CC(=O)O1 (centres unmarked) [7-O-succinyl macrolactin A]
Inhibition zone [9]: 37 mm | Inhibition zone [10]: 38 mm | Inhibition zone [11]: 22 mm | Inhibition zone [12]: 18 mm | Inhibition zone [13]: 12 mm | Inhibition zone [14]: no activity | Inhibition zone [14, 18]: 0 mm | Inhibition zone [15]: 20 mm | Inhibition zone [16]: no activity | Inhibition zone [16, 18]: 0 mm | Inhibition of proliferation ([17]; compound concentration 3.9 μg/ml): 0% | Inhibition of proliferation ([17]; compound concentration 15.6 μg/ml): 0% | Inhibition of proliferation ([17]; compound concentration 31.25 μg/ml): 55% | Inhibition of proliferation ([17]; compound concentration 56.5 μg/ml): 83% | Inhibition of proliferation ([17]; compound concentration 125 μg/ml): 87%
